Test results taken from US20060281719A1, “Oestrogen-17-sulphamates as inhibitors of steroid sulphatase” (priority 2000, published 2006).
Where “and” joins values, the source holds several entries; their conditions need not be identical. Identical values can stand only once.

What was measured:
Plate assay % inhibition = format: cell-based; conditions: -ve % means stimulation
[1] = target: T1, oestrone sulphatase (E1-STS) (Homo sapiens, UniProt P08842); assay: Inhibition of steroid sulphatase (E1-STS) activity in intact MCF-7 breast cancer cells; format: cell-based
T1 sequence (P08842 22-583): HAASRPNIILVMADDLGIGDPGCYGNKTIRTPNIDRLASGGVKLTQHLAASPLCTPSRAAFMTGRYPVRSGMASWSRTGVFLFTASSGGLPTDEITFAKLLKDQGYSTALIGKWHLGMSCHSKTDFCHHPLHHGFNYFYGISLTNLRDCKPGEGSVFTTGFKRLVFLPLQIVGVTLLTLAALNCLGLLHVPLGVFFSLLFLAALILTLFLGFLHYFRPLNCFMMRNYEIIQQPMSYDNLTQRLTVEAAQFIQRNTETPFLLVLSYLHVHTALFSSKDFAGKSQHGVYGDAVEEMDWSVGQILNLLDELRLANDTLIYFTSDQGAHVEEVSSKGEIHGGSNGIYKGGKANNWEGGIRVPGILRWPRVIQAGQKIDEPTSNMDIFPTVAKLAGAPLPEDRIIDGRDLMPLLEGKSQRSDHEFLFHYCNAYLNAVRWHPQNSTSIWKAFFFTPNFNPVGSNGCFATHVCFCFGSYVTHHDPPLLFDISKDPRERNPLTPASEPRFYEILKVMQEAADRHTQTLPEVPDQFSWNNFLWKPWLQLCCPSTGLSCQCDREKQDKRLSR

[2] = target: T1, oestrone sulphatase (E1-STS); assay: Inhibition of steroid sulphatase activity in placental microsomes; format: biochemical; set-up: from tissue; host or cells: human term placenta (microsomal preparation)
Procedure: Inhibition of Steroid Sulphatase Activity in Placental Microsomes
Sulphatase-positive human placenta from normal term pregnancies are thoroughly minced with scissors and washed once with cold phosphate buffer (pH 7.4, 50 mM) then re-suspended in cold phosphate buffer (5 ml/g tissue). Homogenisation is accomplished with an Ultra-Turrax homogeniser, using three 10 second bursts separated by 2 minute cooling periods in ice. Nuclei and cell debris are removed by centrifuging (4° C.) at 2000 g for 30 minutes and portions (2 ml) of the supernatant are stored at 20° C.
Incubations (1 ml) are carried out using a protein concentration of 100 mg/ml, substrate concentration of 20 mM [6,7-3H]oestrone-3-sulphate (specific activity 60 Ci/mmol from New England Nuclear, Boston, Mass., U.S.A.) and an incubation time of 20 minutes at 37° C. If necessary eight concentrations of compounds are employed: 0 (i.e. control); 0.05 mM; 0.1 mM; 0.2 mM; 0.4 mM; 0.6 mM; 0.8 mM; 1.0 mM. After incubation each sample is cooled and the medium (1 ml) was pipetted into separate tubes containing [14C]oestrone (7×10^3 dpm) (specific activity 97 Ci/mmol from Amersham International Radiochemical Centre, Amersham, U.K.). The mixture is shaken thoroughly for 30 seconds with toluene (5 ml). […] A portion (2 ml) of the organic phase was removed, evaporated and the 3H and 14C content of the residue determined by scintillation spectrometry. The mass of oestrone-3-sulphate hydrolysed is calculated from the 3H counts obtained (corrected for the volumes of the medium and organic phase used, and for recovery of [14C]oestrone added) and the specific activity of the substrate.

SMILES	Plate assay % inhibition (Plate assay % inhibition; 1 μM)	Plate assay % inhibition (Plate assay % inhibition; 0.1 μM)	Plate assay % inhibition (Plate assay % inhibition; 10 μM)	% Inhibition of E1-STS activity in MCF-7 cells ([1]; 0.1 μM)	% Inhibition of E1-STS activity in MCF-7 cells ([1]; 1 μM)	% Inhibition of E1-STS activity in MCF-7 cells ([1]; 10 μM)	% Inhibition of E1-STS activity in placental microsomes ([2]; 10 μM)	% Inhibition of E1-STS activity in placental microsomes ([2]; 25 µM)	% Inhibition of E1-STS activity in placental microsomes ([2]; 50 µM)	% Inhibition of E1-STS activity in placental microsomes ([2]; 100 µM)
CCCCCN(CCCCC)S(=O)(=O)O[C@@H]1CC[C@H]2[C@@H]3CCc4cc(O)ccc4[C@H]3CC[C@]12C [BLE00082, 3-Hydroxyestra-1,3,5(10)-trien-17α-O—(N,N-dipentyl)sulfamate]	24%	–	–	–	–	–	–	–	–	–
CCCCCN(CCCCC)S(=O)(=O)O[C@@H]1CC[C@H]2[C@@H]3CCc4cc(OS(N)(=O)=O)ccc4[C@H]3CC[C@]12C [BLE00083B, 3-O-Sulfamoyl-estra-1,3,5(10)-trien-17α-O—(N,N-dipentyl)sulfamate]	–	8%	24%	–	–	–	–	–	–	–
C[C@]12CC[C@@H]3c4ccc(OS(N)(=O)=O)cc4CC[C@H]3[C@@H]1CC[C@@H]2O [BLE00084]	–	4%	23%	–	–	–	–	–	–	–
NS(=O)(=O)Oc1ccc(C(=O)c2ccc(O)cc2)cc1 [Compound 5, 4′-Hydroxybenzophenone-4-O-sulphamate]	–	–	–	34.8 ± 1.7%	83.8 ± 0.5%	96.7 ± 1.0%	62.1 ± 1.4%	82.0 ± 0.4%	88.1 ± 0.3%	92.8 ± 0.2%
NS(=O)(=O)Oc1ccc(C(=O)c2ccccc2)cc1 [Compound 6, Benzophenone-4-O-sulphamate]	–	–	–	<10%	33.04 ± 10.68%	87.89 ± 2.02%	76.73 ± 2.47%	–	88.04 ± 0.82%	92.28 ± 0.41%
NS(=O)(=O)Oc1ccc(C=CC(=O)c2ccccc2)cc1 [Compound 7, Chalcone-4-O-sulphamate]	–	–	–	<10%	24.34 ± 11.89%	83.81 ± 0.17%	47.41 ± 0.05%	–	75.11 ± 1.37%	82.77 ± 0.23%
NS(=O)(=O)Oc1ccc(C(=O)C=Cc2ccccc2)cc1 [Compound 8, Chalcone-4′-O-sulphamate]	–	–	–	<10%	33.04 ± 10.68%	87.89 ± 2.02%	71.27 ± 2.42%	–	75.79 ± 2.06%	80.51 ± 1.87%
NS(=O)(=O)Oc1ccc2oc3ccccc3c2c1 [Compound 9, Dibenzofuran-2-O-sulphamate]	–	–	–	21.3 ± 1.5%	67.9 ± 1.9%	97.1 ± 0.8%	28.8 ± 3.2%	48.5 ± 0.5%	62.0 ± 2.8%	75.8 ± 1.2%
NS(=O)(=O)Oc1ccc2c(c1)C(=O)c1ccc(OS(N)(=O)=O)cc1C2=O [Compound 10, Anthraquinone-2,6-O,O-bis-sulphamate]	–	–	–	93% and 93.1 ± 2.1%	98.6 ± 1.0%	99.1 ± 0.1%	–	95.7 ± 0.5%	97.2 ± 0.3%	97.7 ± 0.1%
NS(=O)(=O)Oc1ccc2c(c1)C(=O)c1ccc(O)cc1C2=O [Compound 11, 2-hydroxyanthraquinone-6-O-sulphamate]	–	–	–	99.3 ± 0.6%	94.5 ± 1.6%	90.1 ± 0.8%	86% and 86.1 ± 0.5%	91.2 ± 0.2%	94.4 ± 0.5%	95.6 ± 0.1%
